Experimental data from US10131675B2 (Genentech, Inc., priority 2015, dated 2018).

Biological target: DLK (Homo sapiens (Human), UniProt Q12852)
Assay: DLK TR-FRET Inhibition Assay
Format: biochemical
Settings: N-terminally GST-tagged DLK (catalytic domain amino acid 1-520), MKK4 K131M substrate, 30 μM ATP; read-out: DLK HTRF Ki
Procedure: DLK kinase reactions (20 μL) containing 5 nM N-terminally GST-tagged DLK (catalytic domain amino acid 1-520) (Carna Bioscience), 40 nM N-terminally HIS tagged MKK4 K131M substrate, and 30 μM ATP in kinase reaction buffer (50 mM HEPES, pH 7.5, 0.01% Triton X-100, 0.01% Bovine γ-Globulins, 2 mM DTT, 10 mM MgCl2 and 1 mM EGTA), and testing compound 1:3 serial diluted starting at 20 uM were incubated at ambient temperature for 60 minutes in 384 well OptiPlate (Perkin Elmer). To quench kinase reactions and detect phosphorylated MKK4, 15 μL of TR-FRET antibody mixture containing 2 nM anti-phosphorylated MKK4 labeled with Europium cryptate (Cisbio) and 23 nM anti-HIS labeled with D2 (Cisbio) in detection buffer (25 mM Tris pH 7.5, 100 mM NaCl, 100 mM EDTA, 0.01% Tween-20, and 200 mM KF) was added to the reaction mixture. The detection mixture was incubated for 3 hours at ambient temperature and the TR-FRET was detected with an EnVision multilabel plate reader (Perkin-Elmer) using the LANCE/DELFIA Dual Enh label from Perkin-Elmer (excitation filter: UV2 (TRF) 320 and emission filters: APC 665 and Europium 615).

Sequence of DLK (Q12852 1-520): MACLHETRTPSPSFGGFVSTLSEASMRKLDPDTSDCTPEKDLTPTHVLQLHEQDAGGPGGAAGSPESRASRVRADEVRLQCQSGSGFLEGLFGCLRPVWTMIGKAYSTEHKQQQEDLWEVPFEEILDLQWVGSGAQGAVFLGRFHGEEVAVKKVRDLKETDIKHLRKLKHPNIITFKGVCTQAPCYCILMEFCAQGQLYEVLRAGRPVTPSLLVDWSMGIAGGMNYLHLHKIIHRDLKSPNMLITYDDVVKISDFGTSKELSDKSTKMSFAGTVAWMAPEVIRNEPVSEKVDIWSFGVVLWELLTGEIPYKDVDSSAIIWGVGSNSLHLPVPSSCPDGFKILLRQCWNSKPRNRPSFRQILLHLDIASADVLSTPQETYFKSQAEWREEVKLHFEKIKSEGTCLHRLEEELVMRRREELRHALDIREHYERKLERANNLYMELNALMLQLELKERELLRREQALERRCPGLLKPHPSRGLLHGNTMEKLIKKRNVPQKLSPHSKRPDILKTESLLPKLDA

Compound | Ki [nM]
CC1(C)OCCn2c1nc1c(N3C[C@H]4CCC(F)(F)[C@H]4C3)nc(-c3cnc(N)nc3)nc12 (racemic) [Example 15, (±)-5-(4-((cis)-4,4-difluorohexahydrocyclopenta[c]-pyrrol-2(1H)-yl)-6,6-dimethyl-8,9-dihydro-6H-[1,4]oxazino[4,3-e]purin-2-yl)pyrimidin-2-amine] | 360
CC[C@]1(C)OCCn2c1nc1c(N3CC4CC3C4)nc(-c3cnc(N)nc3)nc12 (single isomer, unassigned) [Example 94] | 281
Nc1ncc(-c2nc(N3CC4CC3C4)c3nc4n(c3n2)CCO[C@@H]4C(F)(F)F)cn1 (single isomer, unassigned) [Example 99] | 866
C[C@]1(C2CC2)OCCn2c1nc1c(C3CC3)nc(-c3cnc(N)nc3)nc12 (single isomer, unassigned) [Example 105] | 211
C[C@@]1(C2CC2)OCCn2c1nc1c(C3CC3)nc(-c3cnc(N)nc3)nc12 (single isomer, unassigned) [Example 106] | 385
C[C@H]1OCCn2c1nc1c(N3CC4CC3C4)nc(-c3cnc(N)nc3)nc12 (single isomer, unassigned) [Example 108] | 239
CO[C@H]1CC2CC1CN2c1nc(-c2cnc(N)nc2)nc2c1nc1n2CCOC1(C)C (single isomer, unassigned) [Example 141] | 392
CC1(C)OCCn2c1nc1c(N3CC4CC3C[C@H]4F)nc(-c3cnc(N)nc3)nc12 (single isomer, unassigned) [Example 142] | 216
CC1(C)OCCn2c1nc1c(N3CC4CC3C[C@@H]4F)nc(-c3cnc(N)nc3)nc12 (single isomer, unassigned) [Example 143] | 223
COCC1CCCN1c1nc(-c2cnc(N)nc2)nc2c1nc1n2CCOC1(C)C (stereo not drawn) [Example 1, 5-(4-(2-(methoxymethyl)pyrrolidin-1-yl)-6,6-dimethyl-8,9-dihydro-6H-[1,4]oxazino[4,3-e]purin-2-yl)pyrimidin-2-amine] | 392
CC1(C)OCCn2c1nc1c(N3CC(F)C3)nc(-c3cnc(N)nc3)nc12 [Example 2, 5-[1-(3-Fluoro-azetidin-1-yl)-8,8-dimethyl-5,6-dihydro-8H-7-oxa-2,4,4b,9-tetraaza-fluoren-3-yl]-pyrimidin-2-ylamine] | 391
CC1(C)OCCn2c1nc1c(N3CC4CC4C3)nc(-c3cnc(N)nc3)nc12 (stereo not drawn) [Example 5, 5-[1-(3-Aza-bicyclo[3.1.0]hex-3-yl)-8,8-dimethyl-5,6-dihydro-8H-7-oxa-2,4,4b,9-tetraaza-fluoren-3-yl]-pyrimidin-2-ylamine] | 328
CC1(C)OCCn2c1nc1c(N3C[C@@H]4CC(F)(F)C[C@@H]4C3)nc(-c3cnc(N)nc3)nc12 [Example 6] | 727
CC1(C)OCCn2c1nc1c(N3CCC4CC43)nc(-c3cnc(N)nc3)nc12 (stereo not drawn) [Example 7, 5-[1-(2-Aza-bicyclo[3.1.0]hex-2-yl)-8,8-dimethyl-5,6-dihydro-8H-7-oxa-2,4,4b,9-tetraaza-fluoren-3-yl]-pyrimidin-2-ylamine] | 199
CC1(C)OCCn2c1nc1c(N3CCC4(COC4)C3)nc(-c3cnc(N)nc3)nc12 [Example 8, 5-[8,8-Dimethyl-1-(2-oxa-6-aza-spiro[3.4]oct-6-yl)-5,6-hydro-8H-7-oxa-2,4,4b,9-tetraaza-fluoren-3-yl]-pyrimidin-2-ylamine] | 469
CC1(C)OCCn2c1nc1c(N3CC4CC(F)(F)C4C3)nc(-c3cnc(N)nc3)nc12 (stereo not drawn) [Example 10, 5-[1-(6,6-Difluoro-3-aza-bicyclo[3.2.0]hept-3-yl)-8,8-dimethyl-5,6-dihydro-8H-7-oxa-2,4,4b,9-tetraaza-fluoren-3-yl]-pyrimidin-2-ylamine] | 157
CC1(C)OCCn2c1nc1c(N3CC4CC3CC4(F)F)nc(-c3cnc(N)nc3)nc12 (stereo not drawn) [Example 11] | 262
CC1(C)OCCn2c1nc1c(N3CCC4(CCOC4)C3)nc(-c3cnc(N)nc3)nc12 (stereo not drawn) [Example 12, 5-[8,8-Dimethyl-1-(2-oxa-7-aza-spiro[4.4]non-7-yl)-5,6-dihydro-8H-7-oxa-2,4,4b,9-tetraaza-fluoren-3-yl]-pyrimidin-2-ylamine] | 584
CC1(C)OCCn2c1nc1c(N3CC4CCOC4C3)nc(-c3cnc(N)nc3)nc12 (stereo not drawn) [Example 14, 5-[1-(Hexahydro-furo[2,3-c]pyrrol-5-yl)-8,8-dimethyl-5,6-dihydro-8H-7-oxa-2,4,4b,9-tetraaza-fluoren-3-yl]-pyrimidin-2-ylamine] | 990
CC1(C)OCCn2c1nc1c(N3CCCC34CCOC4)nc(-c3cnc(N)nc3)nc12 (stereo not drawn) [Example 16, 5-[8,8-Dimethyl-1-(7-oxa-1-aza-spiro[4.4]non-1-yl)-5,6-dihydro-8H-7-oxa-2,4,4b,9-tetraaza-fluoren-3-yl]-pyrimidin-2-ylamine] | 320
CC1(C)OCCn2c1nc1c(N3CCCC3)nc(-c3cnc(N)nc3)nc12 [Example 18, 5-(8,8-Dimethyl-1-pyrrolidin-1-yl-5,6-dihydro-8H-7-oxa-2,4,4b,9-tetraaza-fluoren-3-yl)-pyrimidin-2-ylamine] | 402
Cc1n[nH]c2ncc(-c3nc(N4CC5CC4C5)c4nc5n(c4n3)CCOC5(C)C)cc12 [Example 19, 1-(2-Aza-bicyclo[2.1.1]hex-2-yl)-8,8-dimethyl-3-(3-methyl-1H-pyrazolo[3,4-b]pyridin-5-yl)-5,6-dihydro-8H-7-oxa-2,4,4b,9-tetraaza-fluorene] | 493
CCc1n[nH]c2ncc(-c3nc(N4CC5CC4C5)c4nc5n(c4n3)CCOC5(C)C)cc12 [Example 20, 1-(2-Aza-bicyclo[2.1.1]hex-2-yl)-3-(3-ethyl-1H-pyrazolo[3,4-b]pyridin-5-yl)-8,8-dimethyl-5,6-dihydro-8H-7-oxa-2,4,4b,9-tetraaza-fluorene] | 161
CCOc1cc(-c2nc(N3CC4CC3C4)c3nc4n(c3n2)CCOC4(C)C)cnc1N [Example 21, 5-[1-(2-Aza-bicyclo[2.1.1]hex-2-yl)-8,8-dimethyl-5,6-dihydro-8H-7-oxa-2,4,4b,9-tetraaza-fluoren-3-yl]-3-ethoxy-pyridin-2-ylamine] | 279
CC(C)Oc1cc(-c2nc(N3CC4CC3C4)c3nc4n(c3n2)CCOC4(C)C)cnc1N [Example 22, 5-[1-(2-Aza-bicyclo[2.1.1]hex-2-yl)-8,8-dimethyl-5,6-dihydro-8H-7-oxa-2,4,4b,9-tetraaza-fluoren-3-yl]-3-isopropoxy-pyridin-2-ylamine] | 406
CCC1CCCN1c1nc(-c2cnc(N)nc2)nc2c1nc1n2CCOC1(C)C (stereo not drawn) [Example 24, 5-[1-(2-Ethyl-pyrrolidin-1-yl)-8,8-dimethyl-5,6-dihydro-8H-7-oxa-2,4,4b,9-tetraaza-fluoren-3-yl]-pyrimidin-2-ylamine] | 294

Continued by falling Ki, values first:

Ki [nM] | Compound
157 | C[C@H]1COC(C)(C)c2nc3c(C4CC4)nc(-c4cnc(N)nc4)nc3n21 (single isomer, unassigned) [Example 102]
149 | C[C@H]1Cn2c(nc3c(N4CC5CC4C5)nc(-c4cnc(N)nc4)nc32)C(C)(C)O1 (single isomer, unassigned) [Example 139]
131 | CC[C@@]1(C)OCCn2c1nc1c(N3CC4CC3C4)nc(-c3cnc(N)nc3)nc12 (single isomer, unassigned) [Example 93]
102 | C[C@@H]1COC(C)(C)c2nc3c(C4CC4)nc(-c4cnc(N)nc4)nc3n21 (single isomer, unassigned) [Example 101]
93.8 | Nc1ncc(-c2nc(N3CC4CC3C4)c3nc4n(c3n2)CCO[C@H]4C(F)(F)F)cn1 (single isomer, unassigned) [Example 98]
82.5 | C[C@@H]1Cn2c(nc3c(N4CC5CC4C5)nc(-c4cnc(N)nc4)nc32)C(C)(C)O1 (single isomer, unassigned) [Example 138]
72.7 | CO[C@@H]1CC2CC1CN2c1nc(-c2cnc(N)nc2)nc2c1nc1n2CCOC1(C)C (single isomer, unassigned) [Example 140]
62 | C[C@H]1COC(C)(C)c2nc3c(N4CC5CC4C5)nc(-c4cnc(N)nc4)nc3n21 (single isomer, unassigned) [Example 97]
59.7 | C[C@@H]1OCCn2c1nc1c(N3CC4CC3C4)nc(-c3cnc(N)nc3)nc12 (single isomer, unassigned) [Example 107]
57.7 | CC1(C)OCCn2c1nc1c(N3CC4CC3C4)nc(-c3cnc4[nH]ccc4c3)nc12 [Example 23, 1-(2-Aza-bicyclo[2.1.1]hex-2-yl)-8,8-dimethyl-3-(1H-pyrrolo[2,3-b]pyridin-5-yl)-5,6-dihydro-8H-7-oxa-2,4,4b,9-tetraaza-fluorene]
42 | C[C@@H]1COC(C)(C)c2nc3c(N4CC5CC4C5)nc(-c4cnc(N)nc4)nc3n21 (single isomer, unassigned) [Example 96]
9.74 | Cc1c[nH]c2ncc(-c3nc(N4CC(F)C4)c4nc5n(c4n3)CCOC5(C)C)cc12 [Example 4, 1-(3-Fluoro-azetidin-1-yl)-8,8-dimethyl-3-(3-methyl-1H-pyrrolo[2,3-b]pyridin-5-yl)-5,6-dihydro-8H-7-oxa-2,4,4b,9-tetraaza-fluorene]
4.92 | Cc1c[nH]c2ncc(-c3nc(N4CC5CC4C5)c4nc5n(c4n3)CCOC5(C)C)cc12 [Example 3, 1-(2-Aza-bicyclo[2.2.1]hex-2-yl)-8,8-dimethyl-3-(3-methyl-1H-pyrrolo[2,3-b]pyridin-5-yl)-5,6-dihydro-8H-7-oxa-2,4,4b,9-tetraaza-fluorene]
